Data: ChEMBL document CHEMBL5625264, “Identification of (4-chlorophenyl)(5-hydroxynaphtho[1,2-b]furan-3-yl)methanone as novel COX-2 inhibitor with analgesic profile” (Bioorg Med Chem Lett, 2024)
Active and inactive are the calls of the source. No cut-off for these calls is given here.

Assays:
[1] = system: Mus musculus; experiment: Analgesic activity in ip dosed formalin-induced ICR mouse model of acute inflammatory pain; format: functional, organism-based
[2] = system: Mus musculus; experiment: Analgesic activity in ip dosed CFA-induced ICR mouse model of chronic inflammatory pain pretreated with CFA for 3 days followed by compound administration and measured at 30 to 300 min by pain behavior test; format: functional, organism-based; settings: time 30-300 min

SMILES	Activity [1]	Activity [2]
O=C(c1ccc(Cl)cc1)c1coc2c1cc(O)c1ccccc12	Active	Active
O=C(Nc1ccccc1NC(=O)c1ccc2c(c1)OCO2)c1ccc2c(c1)OCO2		Active
NS(=O)(=O)c1ccc(-c2sncc2-c2ccc(F)cc2)cc1	Active	Active
